Measurements published in patent US8685974B2 (Bayer CropScience AG, priority 2009, dated 2014).
Where two headings read alike, the source gives them in different places. Marks after values point to notes of the source that are not given here.

Key:
Botrytis cinerea = test: In vivo test on Botrytis cinerea (grey mould); details: dose of 500 ppm; gherkin plants; grading 5/7 days after contamination
Experimental: In Vivo Test on Botrytis cinerea (Grey Mould)
The active ingredients tested are prepared by homogenization in a mixture of acetone/Tween/DMSO, then diluted with water to obtain the desired active material
Gherkin plants (Vert petit de Paris variety), sown on a 50/50 peat soil-pozzolana substrate in starter cups and grown at 18-20° C., are treated at the cotyledon Z11 stage by spraying with the active ingredient prepared as described above.
(§1) Plants, used as controls, are treated with an aqueous solution not containing the active material.
After 24 hours, the plants are contaminated by depositing drops of an aqueous suspension of Botrytis cinerea spores (150,000 spores per ml) on upper surface of the leaves. The spores are collected from a 15-day-old culture and are suspended in a nutrient solution composed of: • 20 g/L of gelatine; • 50 g/L of D-fructose; • 2 g/L of NH4NO3; • 1 g/L of KH2PO4.
The contaminated cucumber plants are settled for 5/7 days in a climatic room at 15-11° C. (day/night) and at 80% relative humidity.
Grading is carried out 5/7 days after the contamination, in comparison with the control plants.

[1] = for logP value of the minor isomer (in parenthesis in column Isomer ratio [d]): main value of the example measured by method [b]
Pyrenophora teres = test: In vivo test on Pyrenophora teres (barley net blotch); details: dose of 500 ppm; barley plants; grading 12 days after contamination
Method in brief: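 Scoring is done 12 days after spore spraying (12,000 spores/ml, from 12-day-old culture), relative to water-treated controls. Inoculation follows by 24 h a preventive spray of the aqueous-diluted formulation onto 1-leaf Plaisant barley raised at 12° C.; infection holds 24 h at about 20° C./100% RH, then 12 days at 80% RH.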

Puccinia recondita = test: In vivo test on Puccinia recondita (brown rust); details: dose of 500 ppm; wheat plants; grading 10 days after contamination
Experimental: In Vivo Test on Puccinia recondita (Brown Rust)
(§2) The active ingredients tested are prepared by homogenization in a mixture of acetone/tween/DMSO, then diluted with water to obtain the desired active material.
Wheat plants (Scipion variety) sown on 50/50 peat soil-pozzolana substrate in starter cups and grown at 12° C., are treated at the 1-leaf stage (10 cm tall) by spraying with the aqueous suspension described above.
as §1
After 24 hours, the plants are contaminated by spraying the leaves with an aqueous suspension of Puccinia recondita spores (100,000 spores per ml). The spores are collected from a 10-day-old contaminated wheat and are suspended in water containing 2.5 ml/l of tween 80 10%. The contaminated wheat plants are incubated for 24 hours at 20° C. and at 100% relative humidity, and then for 10 days at 20° C. and at 70% relative humidity.
Grading is carried out 10 days after the contamination, in comparison with the control plants.

Sphaerotheca fuliginea = test: In vivo test on Sphaerotheca fuliginea (cucurbits powdery mildew); details: dose of 500 ppm; gherkin plants; grading 12 days after contamination
Experimental: In Vivo Test on Sphaerotheca fuliginea (Cucurbits Powdery Mildew)
as §2
Gherkin plants (Vert petit de Paris variety) in starter cups, sown on a 50/50 peat soil-pozzolana substrate and grown at 20° C./23° C., are treated at the cotyledon Z10 stage by spraying with the aqueous suspension described above. Plants, used as controls, are treated with an aqueous solution not containing the active material.
After 24 hours, the plants are contaminated by spraying them with an aqueous suspension of Sphaerotheca fuliginea spores (100 000 spores per ml). The spores are collected from a contaminated plants. The contaminated gherkin plants are incubated at about 20° C./25° C. and at 60/70% relative humidity.
Grading (% of efficacy) is carried out 12 days after the contamination, in comparison with the control plants.

Fusarium proliferatum = test: Production of fumonisin FB1 by Fusarium proliferatum (microtiter plate, HPLC-MS/MS and OD620); assay type: cell-based; details: for % inhibition FB1 production at 50 μM: 5 days at 20° C., HPLC-MS/MS; for % inhibition fungal growth at 50 μM: Fusarium proliferatum, OD620 at start and after 5 days
[2] = system: Mycosphaerella graminicola; test: In vivo test on Mycosphaerella graminicola (wheat leaf spot); details: dose of 500 ppm; wheat plants; grading 21 to 28 days after contamination
Experimental: In Vivo Test on Mycosphaerella graminicola (Wheat Leaf Spot)
The active ingredients tested are prepared by homogenization in a mixture of acetone/tween/DMSO, then diluted with water to obtain the desired active material concentration.
Wheat plants (Scipion variety), sown on a 50/50 peat soil-pozzolana substrate in starter cups and grown at 12° C., are treated at the 1-leaf stage (10 cm tall) by spraying with the aqueous suspension described above. Plants, used as controls, are treated with an aqueous solution not containing the active material.
After 24 hours, the plants are contaminated by spraying them with an aqueous suspension of Mycosphaerella graminicola spores (500 000 spores per ml). The spores are collected from a 7-day-old culture. The contaminated wheat plants are incubated for 72 hours at 18° C. and at 100% relative humidity, and then for 21 to 28 days at 90% relative humidity.
Grading (% of efficacy) is carried out 21 to 28 days after the contamination, in comparison with the control plants.

[3] = logP by HPLC at pH 2.3 (0.1% phosphoric acid / acetonitrile); assay type: physicochemical; details: method [a]: pH 2.3 with 0.1% phosphoric acid and acetonitrile as eluent
Alternaria solani = test: Alternaria test (tomato) / protective; assay type: in vivo; details: 500 ppm active compound, protective spray, evaluated 7 days after inoculation
Method in brief: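 Efficacy scored 7 days after inoculation, where 100% means no infection and 0% matches the untreated control. Test plants were young tomatoes given a protective spray at the stated rate, compound dissolved in DMF plus emulsifier and diluted with water. Incubation at 20° C, 96% relative humidity.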

Peronospora parasitica = test: In vivo test on Peronospora parasitica (crucifer downy mildew); details: dose of 500 ppm; cabbage plants; grading 5 days after contamination
Experimental: In Vivo Test on Peronospora parasitica (Crucifer Downy Mildew)
The active ingredients tested are prepared by homogenization in a mixture of acetone/Tween/DMSO, then diluted with water to obtain the desired active material concentration.
Cabbage plants (Eminence variety) in starter cups, sown on a 50/50 peat soil-pozzolana substrate and grown at 18-20° C., are treated at the cotyledon stage by spraying with the aqueous suspension described above.
as §1
After 24 hours, the plants are contaminated by spraying them with an aqueous suspension of Peronospora parasitica spores (50 000 spores per ml). The spores are collected from infected plant.
The contaminated cabbage plants are incubated for 5 days at 20° C., under a humid atmosphere.
Grading is carried out 5 days after the contamination, in comparison with the control plants.

Fusarium graminearum = assay type: cell-based; details: 50 μM; for % Inhibition of DON/AcDON at 50 μM: 7 days at 28° C.
Leptosphaeria nodorum = Leptosphaeria nodorum test (wheat) / protective; assay type: in vivo; details: 500 ppm active compound, protective spray, evaluated 7-9 days after inoculation
Method in brief: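 Young wheat plants sprayed protectively with compound in DMF/alkylaryl polyglycol ether emulsion diluted in water, then kept in greenhouse at 90% rel. humidity, 22° C. Scored 7-9 days after inoculation as % efficacy, 0% equal to untreated control and 100% no infection.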

Compound: ClCCn1cc(-c2ccncc2)c(-c2ccc(Cl)s2)n1 [Example 55]
- protection (Botrytis cinerea): 75%
- logP value of the minor isomer (in parenthesis in column Isomer ratio [d]) ([1]; pH 2.7): (1.50)
- log p ([1]; pH 2.7): 1.65^[b]
- protection (Pyrenophora teres): 80%

Compound: Clc1ccc(-c2nn(C3CCC3)cc2-c2ccncc2)s1 [Example 18]
- protection (Botrytis cinerea): 100%
- log p ([1]; pH 2.7): 2.04^[b]
- protection (Puccinia recondita): 89%
- protection (Pyrenophora teres): 100%
- protection (% of efficacy) (Sphaerotheca fuliginea): 83%

Compound: Clc1ccc(-c2n[nH]cc2-c2ccncn2)s1 [Example 3]
- % inhibition FB1 production at 50 μM (Fusarium proliferatum): 99%
- % inhibition fungal growth at 50 μM (Fusarium proliferatum): 46%
- protection (% of efficacy) [2]: 86%
- log p ([1]; pH 2.3): 1.82^[a];
- log p ([1]; pH 2.7): 1.74^[b]

Compound: CC(C)Cn1cc(-c2ccnc(NC(=O)OC(C)C)c2)c(-c2ccc(Cl)s2)n1 [Example 319]
- log p [3]: 5.15^[a]

Compound: CCn1cc(-c2ccnc(N=C(c3ccccc3)c3ccccc3)c2)c(-c2ccc(Cl)s2)n1 [Example 311]
- log p [3]: 3.99^[a]
- efficacy (Alternaria solani): 70%

Compound: FCCn1cc(-c2ccncc2)c(-c2ccc(Cl)s2)n1 [Example 62]
- protection (Peronospora parasitica): 89%
- protection (Botrytis cinerea): 98%
- logP value of the minor isomer (in parenthesis in column Isomer ratio [d]) ([1]; pH 2.7): (1.25)
- log p ([1]; pH 2.7): 1.39^[b]
- protection (Puccinia recondita): 88%
- protection (% of efficacy) (Sphaerotheca fuliginea): 94%

Compound: CC(C)Cn1cc(-c2ccnc(NS(C)(=O)=O)c2)c(-c2ccc(Cl)s2)n1 [Example 362]
- log p [3]: 3.04^[a]

Compound: CC(C)Cn1cc(-c2ccnc(NC(=O)c3cccs3)c2)c(-c2ccc(Cl)s2)n1 [Example 320]
- log p [3]: 4.62^[a]

Compound: Clc1ccc(-c2nn(C3CCCCO3)cc2-c2ccncc2)s1 (stereo not drawn) [Example 45]
- protection (% of efficacy) [2]: 71%
- log p ([1]; pH 2.7): 1.91^[b]

Compound: CC(=O)Nc1cc(-c2cn(CC(C)C)nc2-c2ccc(Cl)s2)ccn1 [Example 358]
- % Inhibition of fungal growth at 50 μM (Fusarium graminearum): 102%
- % Inhibition of DON/AcDON at 50 μM (Fusarium graminearum): 100%
- log p [3]: 2.96^[a]
- efficacy (Alternaria solani): 100%
- protection (Pyrenophora teres): 80%

Compound: CC(=O)n1cc(-c2ccncc2)c(-c2ccc(Cl)s2)n1 [Example 86]
- protection (Peronospora parasitica): 92%
- log p ([1]; pH 2.7): 2.04^[b]
- protection (Puccinia recondita): 75%

Compound: CC(C)Cn1cc(-c2ccnc(NC(=O)C3CCC3)c2)c(-c2ccc(Cl)s2)n1 [Example 361]
- log p [3]: 3.96^[a]
- efficacy (Alternaria solani): 94%

Compound: Clc1ccc(-c2nn(CCN3CCOCC3)cc2-c2ccncc2)s1 [Example 60]
- protection (Peronospora parasitica): 98%
- log p ([1]; pH 2.7): 0.52^[b]
- protection (% of efficacy) (Sphaerotheca fuliginea): 75%

Compound: CCNC(=O)Nc1cc(-c2cn(CC(C)C)nc2-c2ccc(Cl)s2)ccn1 [Example 321]
- % Inhibition of fungal growth at 50 μM (Fusarium graminearum): 39%
- % Inhibition of DON/AcDON at 50 μM (Fusarium graminearum): 92%
- log p [3]: 3.18^[a]

Compound: COCC(=O)Nc1cc(-c2cn(CC(C)C)nc2-c2ccc(Cl)s2)ccn1 [Example 360]
- % Inhibition of fungal growth at 50 μM (Fusarium graminearum): 12%
- % Inhibition of DON/AcDON at 50 μM (Fusarium graminearum): 100%
- log p [3]: 3.78^[a]
- efficacy (Alternaria solani): 78%

Compound: Clc1ccc(-c2n[nH]cc2-c2ccncc2)s1 [Example 1]
- % inhibition FB1 production at 50 μM (Fusarium proliferatum): 82%
- % inhibition fungal growth at 50 μM (Fusarium proliferatum): 41%
- protection (% of efficacy) [2]: 75%
- log p ([1]; pH 2.7): 0.96^[b]
- protection (Pyrenophora teres): 90%

Compound: CC(C)CCn1cc(-c2ccncc2)c(-c2ccc(Cl)s2)n1 [Example 17]
- protection (% of efficacy) [2]: 70%
- log p ([1]; pH 2.7): 2.45^[b]
- protection (Puccinia recondita): 70%
- protection (Pyrenophora teres): 100%

Compound: CC(C)Cn1cc(-c2ccnc(NC(=O)C3CC3)c2)c(-c2ccc(Cl)s2)n1 [Example 359]
- % Inhibition of fungal growth at 50 μM (Fusarium graminearum): 62%
- % Inhibition of DON/AcDON at 50 μM (Fusarium graminearum): 100%
- efficacy (Leptosphaeria nodorum): 90%
- log p [3]: 3.48^[a]
- efficacy (Alternaria solani): 94%
- protection (Pyrenophora teres): 70%

Compound: CC(C)Nc1nccc(-c2c[nH]nc2-c2ccc(Cl)s2)n1 [Example 312]
- % Inhibition of fungal growth at 50 μM (Fusarium graminearum): 87%
- % Inhibition of DON/AcDON at 50 μM (Fusarium graminearum): 99%
- log p [3]: 1.79^[a]

Compound: Clc1ccc(-c2nn(C3CCCC3)cc2-c2ccncc2)s1 [Example 15]
- protection (Botrytis cinerea): 100%
- log p ([1]; pH 2.7): 2.25^[b]
- protection (Pyrenophora teres): 89%
- protection (% of efficacy) (Sphaerotheca fuliginea): 92%
